Data reported in patent US5583104A, “Treatment of proliferation of bile duct epithelium” (Mayo Foundation for Medical Research and Education, priority 1993, dated 1996).

Tested on: human cholangiocarcinoma cell line SK-ChA-1
Assay: Anti-proliferative MTT assay on human cholangiocarcinoma cell line SK-ChA-1
Assay type: cell-based
Settings: for inhibiting the growth of the human cholangiocarcinoma cell line: FIGS. 1 and 2, both experiments, non-dose dependent; for Percent Protection, Day 8: first experiment (Table I); for Percent Protection Day 4: second experiment (Table II)
Experimental: The human cholangiocarcinoma cell line SK-ChA-1 was grown from malignant ascites of a patient with primary adenocarcinoma of the extrahepatic biliary tree. See Knuth, et al. J. of Hepatology 1:579 (1985), hereby incorporated by reference.
SK-ChA-1 cells were plated (100 μl) into 96-well culture plates (Falcon) at a density of 50,000 cells/ml in Dulbecco's modified Eagle's medium (DMEM/HAMSF12 (50:50)) with 2% fetal calf serum (FCS, Hyclone) and antibiotics (penicillin 100 IU/ml, streptomycin 100 μg/ml and amphotericin B 2.5 μg/ml). After 18 hours, the medium was replaced with fresh medium with or without the two test drugs, natural somatostatin-14 and the somatostatin agonist octreotide. The experiments were performed in triplicate. Wells without the addition of any test drug served as normal controls. All media, with the appropriate concentration of test drug, were changed every two days.
The amount of viable cells were assayed every two days using 3-(4,5-[…])-2,5-diphenyl tetrazolium (MTT) according to method published by Tada, J. Immunol. Meth. 93:157 (1986), hereby incorporated by reference. Optical density was read by a 96-well automatic microplate reader (molecular Devices) at a test wavelength of 570 nm and a reference wavelength of 630 nm. An experiment had validated the correlation of the MTT assay (r=0.975, p=0.004) with a wide range of cell concentrations (3,000 to 330,000 cells/ml) counted with the hemocytometer. Cell proliferation curves with respect to time and test drug concentration were plotted with control wells as the baseline for comparison.
Two experiments were performed using this assay. […] The second experiment was performed at concentrations of 10^-5 M to 10^-10 M (in one log increments) and assayed every two days until day 8.

[1] = drug concentration 1 × 10^-5 M, MTT viable cells vs control wells
[2] = drug concentration 1 × 10^-10 M

Row | SMILES | inhibiting the growth of the human cholangiocarcinoma cell line | Percent Protection, Day 8 [1] | Percent Protection, Day 8 (drug concentration 1 × 10^-6 M) | Percent Protection, Day 8 (drug concentration 1 × 10^-7 M) | Percent Protection Day 4 (drug concentration 1 × 10^-5 M) | Percent Protection Day 4 (drug concentration 1 × 10^-6 M) | Percent Protection Day 4 (drug concentration 1 × 10^-7 M) | Percent Protection Day 4 (drug concentration 1 × 10^-8 M) | Percent Protection Day 4 (drug concentration 1 × 10^-9 M) | Percent Protection Day 4 [2] | Percent Protection, Day 8 (drug concentration 1 × 10^-8 M)
1 | C[C@H](N)C(=O)NCC(=O)N[C@H]1CSSC[C@@H](C(=O)O)NC(=O)[C@H](CO)NC(=O)[C@H]([C@@H](C)O)NC(=O)[C@H](Cc2ccccc2)NC(=O)[C@H]([C@@H](C)O)NC(=O)[C@H](CCCCN)NC(=O)[C@H](Cc2c[nH]c3ccccc23)NC(=O)[C@H](Cc2ccccc2)NC(=O)[C@H](Cc2ccccc2)NC(=O)[C@H](CC(N)=O)NC(=O)[C@H](CCCCN)NC1=O [Somatostatin] | effective in inhibiting the growth | 94.9% | 66.8% | 89.9% | 54.3% | 47.5% | 42.6% | 50.2% | 50.4% | 62.3% | 
2 | C[C@@H](O)[C@@H]1NC(=O)[C@H](CCCCN)NC(=O)[C@@H](Cc2c[nH]c3ccccc23)NC(=O)[C@H](Cc2ccccc2)NC(=O)[C@@H](NC(=O)[C@H](N)Cc2ccccc2)CSSC[C@@H](C(=O)N[C@H](CO)[C@@H](C)O)NC1=O [Octreotide, H-D-Phe-Cys-Phe-D-Trp-Lys-Thr-Cys-threoninol] | effective in inhibiting the growth | 79.1% | 92.2% | 78.4% | 62.6% | 52.9% | 44.4% | 46.8% | 61.7% | 50.4% | 61.0%
